US20070281992A1, “COMBINATION OF GYRASE B INHIBITORS AND PROTEIN SYNTHESIS INHIBITORS AND USES THEREOF” (priority 2006, published 2007)
Read-outs that look alike come from different tables or passages of the source.

Key:
[1] = test system: Methicillin-Resistant Staphylococcus aureus Isolates; assay: MIC assay (NCCLS broth dilution), MRSA clinical isolates; format: cell-based; settings: for MIC: read-out: Minimal Inhibitory Concentration
Procedure: (§1) Antibiotics: novobiocin, tetracycline, minocycline, oxacillin, and vancomycin were all purchased from Sigma-Aldrich. Linezolid was obtained from Pfizer, Inc. Novobiocin/tetracycline and novobiocin/minocycline were tested in a 2.5:1 ratio to mimic the serum levels. (Vavra, J. J., 1967, Development of resistance to novobiocin, tetracycline, and novobiocin-tetracycline combinations in Staphylococcus aureus populations, J. Bacteriol 93(3):801). Compounds were tested across a concentration range consisting of 11 two-fold serial dilutions of test agent.
(§2) Stock solutions were prepared in sterile deionized water; novobiocin stock concentration was 1600 μg/mL and all other drugs stock solutions were prepared at 640 μg/mL. The stock solutions were allowed to sit at room temperature for one hour to auto-sterilize prior to use in the test. All compounds were in solution in water. The control agent was vancomycin hydrochloride, Sigma Chemical Lot # 015K0825.
(§3) The test organisms for the assay were 52 MSSA, 52 MRSA, 8 VISA, 7 VISE, and 3 LRSA isolates. Quality control strains included Staphylococcus aureus 0100 (ATCC 29213) and Enterococcus faecalis (ATCC 29212).
(§4) The MIC assay was performed according to published NCCLS guidelines. (National Committee for Clinical Laboratory Standards, Methods for Dilution Antimicrobial Susceptibility Tests for Bacteria that Grow Aerobically; Approved Standard-Sixth Edition, NCCLS Document M7-A6 [ISBN 1-56238-486-4], NCCLS, 940 West Valley Road, Suite 1400, Wayne, Pa. 19087-1898 USA, 2003). The test medium was Mueller Hinton II Broth for all organisms.

[2] = test system: Enterococcus faecalis (ATCC 29212); assay: MIC assay, quality control strain E. faecalis ATCC 29212; format: cell-based; settings: ATCC29212, E. faecalis ATCC 29212, repeat runs 22FEB06-09MAR06, combinations at 2.5:1, read-out: Minimal Inhibitory Concentration, quality control
Procedure: as §1, §2, §3, §4

[3] = Staphylococcus aureus, 52 MRSA isolates, combinations at 2.5:1, given as NB/partner

Question: For `CO[C@@H]1[C@@H](OC(N)=O)[C@@H](O)[C@H](Oc2ccc3c(O)c(NC(=O)c4ccc(O)c(CC=C(C)C)c4)c(=O)oc3c2C)OC1(C)C` [NB, novobiocin], which “MIC Range” value ([1]; 52 MRSA isolates, combinations at 2.5:1, given as NB/partner) is on record?
Answer: The value was “≦.04-.62 μg/ml”.

Question: What about the MIC ([1]; Staphylococcus aureus, MRSA isolate 757, 24FEB06) of the same compound?
Answer: Its MIC is 0.31 µg/mL.

Question: What about the MIC ([1]; Staphylococcus aureus, MRSA isolate 758, 03MAR06) of the same compound?
Answer: The MIC was 0.08 µg/mL.

Question: What about the MIC ([1]; Staphylococcus aureus, MRSA isolate 758, 24FEB06) of the same compound?
Answer: Its MIC is 0.15 µg/mL.

Question: And the MIC ([1]; Staphylococcus aureus, MRSA isolate 760, 03MAR06)?
Answer: The MIC was 0.08 µg/mL.

Question: And the MIC ([1]; Staphylococcus aureus, MRSA isolate 760, 24FEB06)?
Answer: The MIC was 0.15 µg/mL.

Question: And the MIC ([1]; Staphylococcus aureus, MRSA isolate 763, 22FEB06)?
Answer: Its MIC is 0.08 µg/mL.

Question: And the MIC ([1]; Staphylococcus aureus, MRSA isolate 765, 22FEB06)?
Answer: Its MIC is 0.15 µg/mL.

Question: And the MIC ([1]; Staphylococcus aureus, MRSA isolate 766, 22FEB06)?
Answer: The MIC was 0.08 µg/mL.

Question: And the MIC ([1]; Staphylococcus aureus, MRSA isolate 767, 22FEB06)?
Answer: The MIC was 0.15 µg/mL.

Question: What about the MIC ([1]; Staphylococcus aureus, MRSA isolate 768, 22FEB06) of the same compound?
Answer: Its MIC is 0.15 µg/mL.

Question: What about the MIC ([1]; Staphylococcus aureus, MRSA isolate 769, 22FEB06) of the same compound?
Answer: Its MIC is 0.15 µg/mL.

Question: What about the MIC ([1]; Staphylococcus aureus, MRSA isolate 770, 22FEB06) of the same compound?
Answer: The MIC was at most 0.04 µg/mL.

Question: What about the MIC ([1]; Staphylococcus aureus, MRSA isolate 771, 22FEB06) of the same compound?
Answer: The MIC was 0.08 µg/mL.

Question: What about the MIC ([1]; Staphylococcus aureus, MRSA isolate 772, 22FEB06) of the same compound?
Answer: Its MIC is 0.15 µg/mL.

Question: What about the MIC ([1]; Staphylococcus aureus, MRSA isolate 773, 24FEB06) of the same compound?
Answer: Its MIC is 0.31 µg/mL.

Question: What about the MIC ([1]; Staphylococcus aureus, MRSA isolate 774, 24FEB06) of the same compound?
Answer: The MIC was 0.31 µg/mL.

Question: What about the MIC ([1]; Staphylococcus aureus, MRSA isolate 775, 24FEB06) of the same compound?
Answer: The MIC was 0.15 µg/mL.

Question: And the MIC ([1]; Staphylococcus aureus, MRSA isolate 776, 24FEB06)?
Answer: Its MIC is 0.15 µg/mL.

Question: What about the MIC ([1]; Staphylococcus aureus, MRSA isolate 777, 24FEB06) of the same compound?
Answer: Its MIC is at most 0.04 µg/mL.

Question: What about the MIC ([1]; Staphylococcus aureus, MRSA isolate 778, 24FEB06) of the same compound?
Answer: Its MIC is at most 0.04 µg/mL.

Question: What about the MIC ([1]; Staphylococcus aureus, MRSA isolate 886, 24FEB06) of the same compound?
Answer: Its MIC is 0.15 µg/mL.

Question: And the MIC ([1]; Staphylococcus aureus, MRSA isolate 887, 24FEB06)?
Answer: Its MIC is 0.08 µg/mL.

Question: And the MIC ([1]; Staphylococcus aureus, MRSA isolate 888, 24FEB06)?
Answer: The MIC was 0.15 µg/mL.

Question: And the MIC ([1]; Staphylococcus aureus, MRSA isolate 889, 24FEB06)?
Answer: Its MIC is 0.15 µg/mL.

Question: And the MIC ([1]; Staphylococcus aureus, MRSA isolate 1004, 24FEB06)?
Answer: Its MIC is 0.31 µg/mL.

Question: And the MIC ([1]; Staphylococcus aureus, MRSA isolate 1010, 22FEB06)?
Answer: Its MIC is 0.31 µg/mL.

Question: What about the MIC ([1]; Staphylococcus aureus, MRSA isolate 1012, 22FEB06) of the same compound?
Answer: The MIC was 0.31 µg/mL.

Question: And the MIC ([1]; Staphylococcus aureus, MRSA isolate 1013, 22FEB06)?
Answer: Its MIC is 0.31 µg/mL.

Question: What about the MIC ([1]; Staphylococcus aureus, MRSA isolate 1014, 22FEB06) of the same compound?
Answer: Its MIC is 0.15 µg/mL.

Question: And the MIC ([1]; Staphylococcus aureus, MRSA isolate 1015, 22FEB06)?
Answer: Its MIC is 0.08 µg/mL.

Question: What about the MIC ([1]; Staphylococcus aureus, MRSA isolate 1016, 22FEB06) of the same compound?
Answer: The MIC was 0.31 µg/mL.

Question: What about the MIC ([1]; Staphylococcus aureus, MRSA isolate 1017, 22FEB06) of the same compound?
Answer: The MIC was 0.08 µg/mL.

Question: What about the MIC ([1]; Staphylococcus aureus, MRSA isolate 1021, 22FEB06) of the same compound?
Answer: Its MIC is 0.15 µg/mL.

Question: And the MIC ([1]; Staphylococcus aureus, MRSA isolate 1022, 22FEB06)?
Answer: The MIC was 0.31 µg/mL.

Question: And the MIC ([1]; Staphylococcus aureus, MRSA isolate 1023, 22FEB06)?
Answer: The MIC was 0.15 µg/mL.

Question: What about the MIC ([1]; Staphylococcus aureus, MRSA isolate 1024, 22FEB06) of the same compound?
Answer: The MIC was 0.15 µg/mL.

Question: What about the MIC ([1]; Staphylococcus aureus, MRSA isolate 1025, 22FEB06) of the same compound?
Answer: The MIC was 0.15 µg/mL.

Question: What about the MIC ([1]; Staphylococcus aureus, MRSA isolate 1135, 22FEB06) of the same compound?
Answer: The MIC was 0.31 µg/mL.

Question: What about the MIC ([1]; Staphylococcus aureus, MRSA isolate 1136, 22FEB06) of the same compound?
Answer: The MIC was 0.31 µg/mL.

Question: What about the MIC ([1]; Staphylococcus aureus, MRSA isolate 1137, 22FEB06) of the same compound?
Answer: Its MIC is 0.62 µg/mL.

Question: What about the MIC ([1]; Staphylococcus aureus, MRSA isolate 1138, 22FEB06) of the same compound?
Answer: The MIC was 0.15 µg/mL.

Question: And the MIC ([1]; Staphylococcus aureus, MRSA isolate 1222, 03MAR06)?
Answer: Its MIC is 0.08 µg/mL.

Question: What about the MIC ([1]; Staphylococcus aureus, MRSA isolate 1222, 24FEB06) of the same compound?
Answer: The MIC was 0.08 µg/mL.

Question: What about the MIC ([1]; Staphylococcus aureus, MRSA isolate 1653, 03MAR06) of the same compound?
Answer: Its MIC is at most 0.04 µg/mL.

Question: What about the MIC ([1]; Staphylococcus aureus, MRSA isolate 1658, 03MAR06) of the same compound?
Answer: Its MIC is 0.08 µg/mL.

Question: And the MIC ([1]; Staphylococcus aureus, MRSA isolate 1659, 03MAR06)?
Answer: The MIC was 0.08 µg/mL.

Question: And the MIC ([1]; Staphylococcus aureus, MRSA isolate 1661, 03MAR06)?
Answer: The MIC was at most 0.04 µg/mL.

Question: And the MIC ([1]; Staphylococcus aureus, MRSA isolate 1729, 03MAR06)?
Answer: Its MIC is 0.08 µg/mL.

Question: And the MIC ([1]; Staphylococcus aureus, MRSA isolate 1730, 24FEB06)?
Answer: Its MIC is 0.15 µg/mL.

Question: And the MIC ([1]; Staphylococcus aureus, MRSA isolate 2009, 24FEB06)?
Answer: Its MIC is at most 0.04 µg/mL.

Question: What about the MIC ([1]; Staphylococcus aureus, MRSA isolate 2010, 24FEB06) of the same compound?
Answer: Its MIC is 0.15 µg/mL.

Question: What about the MIC ([1]; Staphylococcus aureus, MRSA isolate 2011, 24FEB06) of the same compound?
Answer: Its MIC is 0.15 µg/mL.

Question: What about the MIC50 [1, 3] of the same compound?
Answer: The MIC50 was 0.15 µg/mL.

Question: What about the MIC90 [1, 3] of the same compound?
Answer: The MIC90 was 0.312 µg/mL.

Question: What about the MIC [2] of the same compound?
Answer: The MIC was 5 µg/mL.
